Measurements taken from US8980872B2, “Agent for preventing and/or treating functional gastrointestinal disorder” (Aska Pharmaceutical Co., Ltd., priority 2008, dated 2015).

Test system: Water Avoidance Stress-Induced Hyperdefecation Model
Test: Inhibition test of the number of stools using water avoidance stress-induced hyperdefecation model
Format: in vivo, rat
Experimental: Each of rats was freely allowed to have an enteral nutritional supplement, ELENTAL (0.25 g/mL; manufactured by Ajinomoto Co., Inc.) contained in a water-feeding bottle for seven days before a treatment with TNBS (2,4,6-trinitrobenzene sulfonic acid). The rats were fasted from the day before the TNBS administration day, and drinking water instead of ELENTAL was contained in the water-feeding bottle. On the day of the TNBS treatment (the rat: 8-week-old), 10 mL of physiological saline was intrarectally injected to the rat under anesthetization with ethyl ether to wash the enteral content. After the washing, the rat was allowed to stand longer than 2 hours, and 1 mL of 5 or 30 mg/head of TNBS in 40% ethanol/physiological saline (vehicle) was applied (injected) through the rectal injection under anesthetization with pentobarbital. Further, a silicone plug was inserted to the anus of the rat to stay the TNBS solution in the injection site, and the surrounding of the anus was fixed with an adhesive cloth elastic bandage (Elastopore). After about four hours of the TNBS treatment, the Elastopore and the silicone plug were removed from the rat, and 10 mL of physiological saline was intrarectally injected to the rat to discharge the enteral content. The animal was conventionally bled for four weeks from the TNBS treatment to recover from colitis. Moreover, to each of positive control rats, alosetron was orally administered singly before one hour of the stress loading.
Moreover, to each of positive control rats, alosetron (10 mg/kg) was orally administered singly before one hour of the water-stress loading. On the day of the measurement of the number of stools (the rat: 12-week-old), the animal was allowed to stand on a block (10 cm×5 cm×10 cm) installed in a water bath (about 50×30×40 cm, water depth: 5 cm) for one hour. However, each of animals on which no water environment stress was loaded (normal group) was allowed to stand in a waterless bath. The total number of stools excreted for the one hour after the animal was allowed to stand in the water bath was measured as the number of stools. Moreover, the nature of stools were compared and examined.

For `Cc1[nH]cnc1CN1CCc2c(c3ccccc3n2C)C1=O` [alosetron], the “number of stools excreted for one hour compared with the control group” value (alosetron 10 mg/kg orally, single dose one hour before water-stress loading, p<0.001, t-test) was “showed a significantly effect compared with the control group”.

With `CO[C@H]1/C=C/O[C@@]2(C)Oc3c(C)c(O)c4c(O)c(c5c(nc6cc(C)ccn65)c4c3C2=O)NC(=O)/C(C)=C\C=C\[C@H](C)[C@H](O)[C@@H](C)[C@@H](O)[C@@H](C)[C@H](OC(C)=O)[C@@H]1C` [rifaximin] the “number of stools excreted for one hour compared with the control” value (rifaximin 100 mg/kg orally for 9 days, rats recovered from TNBS colitis, p<0.001, Dunnett test) was “decreased the number of stools compared with the control”, the “dose dependence of the defecation inhibition effect” value (rifaximin 6.25, 25 and 100 mg/kg orally for 9 days) was “depended on the dose” and the nature of stool (rifaximin-administered group, orally for 9 days) was “normalization in the nature of stool was observed”. The “motility of the intestinal tract” value (rifaximin-administered group, concluded from number and nature of stools) was “the motility of the intestinal tract was improved”.
